Results on 1 substance are retold here after patent US20110229499A1, “METHOD FOR TREATMENT OF VASCULAR HYPERPERMEABILITY” (priority 2010, published 2011).

The experiment deals with Rat lung microvascular endothelial cells. As to the kind of experiment: Adherens junction damage, beta catenin immunofluorescence. The experiment is classed as cell-based. As to conditions: SCF 100 ng/ml pre-treatment 1 hour. As for the experimental part:
Rat lung microvascular endothelial cells were grown on fibronectin coated chamber slides in complete MCDB-3 media for 24 hours. The cells were pre-treated with SCF (100 ng/ml) for 1 hour. The cells exposed to shock serum or were transfected with caspase-3 (5 μg/ml) for 60 minutes. Caspase-3 were exposed to TransIT (10 μl/ml) for 15 minutes before exposure to the cells. The cells were washed in PBS, permeabilized with Triton X-100 and fixed with 4% paraformaldehyde. The cells were then washed in PBS, blocked with 2.5% BSA-PBS and exposed to polyclonal antibody against β-catenin overnight at 4° C. The cells were washed, mounted in an antifade-DAPI mountant and visualized utilizing a fluorescent microscope.

With “SCF: stem cell factor, a soluble factor (protein) produced by stem cells”, the “caspase-3 mediated adherens junction disruption” value (caspase-3 5 μg/ml transfected 60 minutes) is on record as “did not protect”. Moreover, the “shock serum-induced adherens junction disruption” value (shock serum 60 minutes) was “showed protection”.
